# Measurements as given in US11780845B2 (Relay Therapeutics, Inc., priority 2019, dated 2023).
# How the values were obtained:
# [1] = test system: SNU16 cells; assay: SNU16 Cancer Cell Line Proliferation Assay; assay type: cell-based; conditions: Homo sapiens; SNU-16 cells
# Procedure, shortened: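 Proliferation read-out: CellTiter Glo chemiluminescence after 96 h compound exposure. Test compounds, serially diluted 3-fold over 11 points from a 10 mM DMSO stock, were added to SNU16 cells plated 24 h earlier at 37 degrees.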
# [2] = molecular target: FGFR2 (Homo sapiens (Human), UniProt P21802); assay: FGFR2 Biochemical Caliper Assay
# FGFR2, sequence (P21802 22-821): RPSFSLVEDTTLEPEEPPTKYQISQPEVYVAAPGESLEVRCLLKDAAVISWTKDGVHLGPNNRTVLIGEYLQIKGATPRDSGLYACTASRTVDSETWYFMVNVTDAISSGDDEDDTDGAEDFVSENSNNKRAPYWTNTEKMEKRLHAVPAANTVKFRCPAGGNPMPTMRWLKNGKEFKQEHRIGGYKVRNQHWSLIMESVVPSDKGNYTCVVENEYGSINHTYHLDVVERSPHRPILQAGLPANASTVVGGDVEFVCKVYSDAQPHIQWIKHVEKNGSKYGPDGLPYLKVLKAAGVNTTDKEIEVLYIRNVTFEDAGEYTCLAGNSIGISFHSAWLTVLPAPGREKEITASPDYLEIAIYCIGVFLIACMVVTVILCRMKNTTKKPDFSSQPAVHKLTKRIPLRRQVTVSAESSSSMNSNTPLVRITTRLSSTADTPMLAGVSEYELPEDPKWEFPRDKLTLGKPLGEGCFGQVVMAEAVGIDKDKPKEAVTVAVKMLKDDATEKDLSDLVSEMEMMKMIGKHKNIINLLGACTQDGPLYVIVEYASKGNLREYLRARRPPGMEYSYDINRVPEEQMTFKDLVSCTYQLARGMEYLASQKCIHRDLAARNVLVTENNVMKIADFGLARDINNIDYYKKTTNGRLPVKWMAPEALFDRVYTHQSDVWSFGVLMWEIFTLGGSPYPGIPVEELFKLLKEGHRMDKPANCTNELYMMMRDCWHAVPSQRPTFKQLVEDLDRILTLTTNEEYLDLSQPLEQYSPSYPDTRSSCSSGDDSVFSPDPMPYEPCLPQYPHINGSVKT
# Protocol: Compounds of the present invention were also tested in a FGFR2 Biochemical Caliper Assay. Compounds were prepared in 10 mM DMSO solution and serially diluted into 11 concentrations by 3-fold dilution. […] 5 uL of ATP solution (100 uM) was added to start the reaction and the plate was incubated for 90 minutes, then 70 uL of stopping buffer (0.5M EDTA) was added to terminate the reaction. Each well was analyzed using EZ reader.
IC50 [1] [nM],IC50 [2] [nM],SMILES
1000 to 100000,1000 to 100000,C=C(C)C(=O)N1CC=C(c2c(-c3ccc(Oc4ncccn4)cc3)c3c(N)ncnc3n2C)C1 [Example 688]
≤ 100,< 100,C=CC(=O)N1CCC(c2c(-c3ccc(Oc4ccccn4)cc3)c3c(N)ncnc3n2C)C1 (stereo not shown) [Example 689]
≤ 100,< 100,C=CC(=O)N1CC=C(c2c(-c3ccc(Oc4cccc(CC)n4)c(OC)c3)c3c(N)ncnc3n2C)CC1 [Example 690]
1000 to 100000,250 to 1000,C=C(C)C(=O)N1CCC(c2c(-c3ccc(Oc4cccc(C)n4)cc3)c3c(N)ncnc3n2C)C1 (stereo not shown) [Example 691]
1000 to 100000,1000 to 100000,C/C=C/C(=O)N1CCC(c2c(-c3ccc(Oc4cccc(C)n4)cc3)c3c(N)ncnc3n2C)C1 (stereo not shown) [Example 692]
1000 to 100000,250 to 1000,C=C(C)C(=O)N1CCC(c2c(-c3ccc(Oc4cccc(C)n4)cc3)c3c(N)ncnc3n2C)CC1 [Example 693]
250 to 1000,250 to 1000,C/C=C/C(=O)N1CCC(c2c(-c3ccc(Oc4cccc(C)n4)cc3)c3c(N)ncnc3n2C)CC1 [Example 694]
≤ 100,100 to 250,CC#CC(=O)N1CCC(c2c(-c3ccc(Oc4cccc(C)n4)cc3)c3c(N)ncnc3n2C)CC1 [Example 695]
100 to 250,250 to 1000,C=CC(=O)N1CCC(c2c(-c3ccc(Oc4ncccn4)cc3)c3c(N)ncnc3n2C)CC1 [Example 696]
≤ 100,100 to 250,CC#CC(=O)N1CCC(c2c(-c3ccc(Oc4cccc(C)n4)cc3)c3c(N)ncnc3n2C)C1 (stereo not shown) [Example 699]
250 to 1000,1000 to 100000,C=CC(=O)N1CCC(c2c(-c3ccccc3)c3c(N)ncnc3n2C)C1 (stereo not shown) [Example 700]
≤ 100,< 100,C=CC(=O)N1CCC(c2c(-c3ccc(Oc4ccccn4)cc3)c3c(N)ncnc3n2C)CC1 [Example 701]
100 to 250,250 to 1000,C=CC(=O)N1CCC(c2c(-c3ccc(OC)cc3)c3c(N)ncnc3n2C)C1 (stereo not shown) [Example 702]
≤ 100,< 100,C=C(C)C(=O)Nc1ccc(-c2[nH]c3ncnc(N)c3c2-c2ccc(Oc3cccc(C)n3)cc2)cc1 [Example 703]
100 to 250,250 to 1000,C=CC(=O)N1CCC(c2c(-c3ccc(Oc4ncccn4)cc3)c3c(N)ncnc3n2C2CCOCC2)C1 (stereo not shown) [Example 704]
≤ 100,100 to 250,C=CC(=O)N1CCC(c2c(-c3ccc(Oc4ncccn4)cc3)c3c(N)ncnc3n2CC)C1 (stereo not shown) [Example 705]
≤ 100,< 100,C=CC(=O)N1CCC(c2c(-c3ccc(Oc4ccc(Cl)cn4)cc3)c3c(N)ncnc3n2C)C1 (stereo not shown) [Example 706]
1000 to 100000,1000 to 100000,C=CC(=O)N1CCC(c2c(-c3ccc(Oc4ncccn4)cc3)c3c(N)ncnc3n2CCN(C)C)C1 (stereo not shown) [Example 707]
≤ 100,< 100,C=CC(=O)N1CCC(c2[nH]c3ncnc(N)c3c2-c2ccc(Oc3ncccn3)cc2)C1 (stereo not shown) [Example 709]
≤ 100,< 100,C=CC(=O)N1CC[C@@H](c2[nH]c3ncnc(N)c3c2-c2ccc(Oc3ncccn3)cc2)C1 [Example 713]
≤ 100,< 100,C=CC(=O)N1CCC(c2c(-c3ccc(Oc4ncccn4)cc3)c3c(N)ncnc3n2C2CC(O)C2)C1 (stereo not shown) [Example 714]
1000 to 100000,1000 to 100000,C=CC(=O)N1CCC(c2c(-c3cnn(CCN(C)C)c3)c3c(N)ncnc3n2C)C1 (stereo not shown) [Example 715]
≤ 100,< 100,C=CC(=O)N1CCC(c2c(-c3ccc(OC4CCCC4)cc3)c3c(N)ncnc3n2C)C1 (stereo not shown) [Example 716]
250 to 1000,1000 to 100000,C=CC(=O)N1CCC(c2c(-c3ccc(OCCOC)cc3)c3c(N)ncnc3n2C)C1 (stereo not shown) [Example 717]
250 to 1000,250 to 1000,C=CC(=O)N1CCC(c2c(-c3ccc(C(=O)N4CCC(F)(F)C4)cc3)c3c(N)ncnc3n2C)C1 (stereo not shown) [Example 718]
≤ 100,< 100,C=CC(=O)N1CCC(c2c(-c3ccc(N4CCCC4)cc3)c3c(N)ncnc3n2C)C1 (stereo not shown) [Example 719]
